Laboratory results as given in the supplement of paper PMC10307832.

How the values were obtained:
Experiment in all cases: relative viability (nuclei count vs DMSO), 5 days (fraction); higher = more cells survive
[1] = compound: COc1cc2ncn(-c3cc(OCc4ccccc4C(F)(F)F)c(C(N)=O)s3)c2cc1OC + NC(=O)Nc1cc(-c2cccc(F)c2)sc1C(=O)N[C@H]1CCCNC1 [AZD7762] (partner 0.2 µM)
How it was run: (§1)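 Nuclei were stained with Hoechst during a one-step fixation (final 0.05% Triton X-100, 1% formaldehyde, 1 ug/ml Hoechst) carried out 5 days after dosing, then counted on 4× images. The cells, lung cancer lines in 1536-well plates, had been dosed by pin tool the day after seeding with one drug alone or a fixed anchor-drug dose plus five library-drug doses (not always all listed) in √10 steps. Relative viability is the nuclei count in treated wells divided by that in vehicle wells, and each value is the median of duplicate plates.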

[2] = compound: COc1cc2ncn(-c3cc(OCc4ccccc4C(F)(F)F)c(C(N)=O)s3)c2cc1OC + CC(C)C[C@H](NC(=O)[C@H](Cc1ccccc1)NC(=O)c1cnccn1)B(O)O [Bortezomib] (partner 0.002 µM)
How it was run: as §1

[3] = compound: COc1cc2ncn(-c3cc(OCc4ccccc4C(F)(F)F)c(C(N)=O)s3)c2cc1OC + CS(=O)(=O)N1CCN(Cc2cc3nc(-c4cccc5[nH]ncc45)nc(N4CCOCC4)c3s2)CC1 [Pictilisib] (partner 1 µM)
How it was run: as §1

[4] = compound: COc1cc2ncn(-c3cc(OCc4ccccc4C(F)(F)F)c(C(N)=O)s3)c2cc1OC + C[C@]1(O)C[C@@H](c2nc(-c3ccc4ccc(-c5ccccc5)nc4c3)c3c(N)nccn32)C1 [Linsitinib] (partner 1 µM)
How it was run: as §1

[5] = compound: COc1cc2ncn(-c3cc(OCc4ccccc4C(F)(F)F)c(C(N)=O)s3)c2cc1OC + O=C(c1cc(Cc2n[nH]c(=O)c3ccccc23)ccc1F)N1CCN(C(=O)C2CC2)CC1 [Olaparib] (partner 8 µM)
How it was run: as §1

[6] = compound: COc1cc2ncn(-c3cc(OCc4ccccc4C(F)(F)F)c(C(N)=O)s3)c2cc1OC + C[C@@H](Oc1cc(-c2cnn(C3CCNCC3)c2)cnc1N)c1c(Cl)ccc(F)c1Cl [Crizotinib] (partner 1 µM)
How it was run: as §1

[7] = compound: COc1cc2ncn(-c3cc(OCc4ccccc4C(F)(F)F)c(C(N)=O)s3)c2cc1OC + CC1(C)CCC(c2ccc(Cl)cc2)=C(CN2CCN(c3ccc(C(=O)NS(=O)(=O)c4ccc(N[C@H](CCN5CCOCC5)CSc5ccccc5)c(S(=O)(=O)C(F)(F)F)c4)cc3)CC2)C1 [Navitoclax] (partner 0.5 µM)
How it was run: as §1

[8] = compound: COc1cc2ncn(-c3cc(OCc4ccccc4C(F)(F)F)c(C(N)=O)s3)c2cc1OC + COc1cc2c(Oc3ccc(NC(=O)C4(C(=O)Nc5ccc(F)cc5)CC4)cc3F)ccnc2cc1OCCCN1CCOCC1 [Foretinib] (partner 0.25 µM)
How it was run: as §1

[9] = compound: COc1cc2ncn(-c3cc(OCc4ccccc4C(F)(F)F)c(C(N)=O)s3)c2cc1OC + Cc1nc(NC(=O)N2CCC[C@H]2C(N)=O)sc1-c1ccnc(C(C)(C)C(F)(F)F)c1 [Alpelisib] (partner 2 µM)
How it was run: as §1

[10] = compound: COc1cc2ncn(-c3cc(OCc4ccccc4C(F)(F)F)c(C(N)=O)s3)c2cc1OC + CS(=O)(=O)CCNCc1ccc(-c2ccc3ncnc(Nc4ccc(OCc5cccc(F)c5)c(Cl)c4)c3c2)o1 [Lapatinib] (partner 2 µM)
How it was run: as §1

[11] = compound: COc1cc2ncn(-c3cc(OCc4ccccc4C(F)(F)F)c(C(N)=O)s3)c2cc1OC
How it was run: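 Five library-drug doses spaced by √10 were pinned onto vehicle-anchored 1536-well plates of lung cancer cell lines that had been kept overnight at 37 °C. Cells went 5 days without medium change, then were fixed, permeabilised and Hoechst-stained together, imaged at 4× and counted by MetaXpress. Viability is the ratio of treated-well to vehicle-well nuclei, taken as a median over plates. Plates required control CV below 25% and at least one doubling.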

With NCI-H1703 the relative viability ([1]; first compound 0.05 µM) was 0.141, the relative viability ([1]; first compound 0.1581 µM) was 0.131 and the relative viability ([1]; first compound 0.5 µM) was 0.104. The relative viability ([1]; first compound 1.581 µM) was 0.119, the relative viability ([1]; first compound 5 µM) was 0.104 and the relative viability ([2]; first compound 0.05 µM) was 0.384. For the same cell line, the relative viability ([2]; first compound 0.1581 µM) was 0.339, the relative viability ([2]; first compound 0.5 µM) was 0.172 and the relative viability ([2]; first compound 1.581 µM) was 0.0978. For the same cell line, the relative viability ([2]; first compound 5 µM) was 0.173, the relative viability ([3]; first compound 0.05 µM) was 0.256 and the relative viability ([3]; first compound 0.1581 µM) was 0.227. The relative viability ([3]; first compound 0.5 µM) was 0.2, the relative viability ([3]; first compound 1.581 µM) was 0.126 and the relative viability ([3]; first compound 5 µM) was 0.172. It also gave a relative viability ([4]; first compound 0.05 µM) of 0.721, a relative viability ([4]; first compound 0.1581 µM) of 0.992 and a relative viability ([4]; first compound 0.5 µM) of 0.205. It also gave a relative viability ([4]; first compound 1.581 µM) of 0.143, a relative viability ([4]; first compound 5 µM) of 0.078 and a relative viability ([5]; first compound 0.05 µM) of 0.416. For the same cell line, the relative viability ([5]; first compound 0.1581 µM) was 0.616, the relative viability ([5]; first compound 0.5 µM) was 0.488 and the relative viability ([5]; first compound 1.581 µM) was 0.261. For the same cell line, the relative viability ([5]; first compound 5 µM) was 0.066, the relative viability ([6]; first compound 0.05 µM) was 0.962 and the relative viability ([6]; first compound 0.1581 µM) was 0.813. For the same cell line, the relative viability ([6]; first compound 0.5 µM) was 0.144, the relative viability ([6]; first compound 1.581 µM) was 0.117 and the relative viability ([6]; first compound 5 µM) was 0.206. The relative viability ([7]; first compound 0.05 µM) was 1.38, the relative viability ([7]; first compound 0.1581 µM) was 1.28 and the relative viability ([7]; first compound 0.5 µM) was 0.509. The relative viability ([7]; first compound 1.581 µM) was 0.124, the relative viability ([7]; first compound 5 µM) was 0.0953 and the relative viability ([8]; first compound 0.05 µM) was 0.308. The relative viability ([8]; first compound 0.5 µM) was 0.303, the relative viability ([8]; first compound 5 µM) was 0.15 and the relative viability ([9]; first compound 0.05 µM) was 0.3. The relative viability ([9]; first compound 0.1581 µM) was 0.368, the relative viability ([9]; first compound 0.5 µM) was 0.271 and the relative viability ([9]; first compound 1.581 µM) was 0.142. It also gave a relative viability ([9]; first compound 5 µM) of 0.12, a relative viability ([10]; first compound 0.05 µM) of 1.28 and a relative viability ([10]; first compound 0.1581 µM) of 1.44. It also gave a relative viability ([10]; first compound 0.5 µM) of 0.564, a relative viability ([10]; first compound 1.581 µM) of 0.17 and a relative viability ([10]; first compound 5 µM) of 0.235. For the same cell line, the relative viability ([11]; 0.05 µM) was 1.1, the relative viability ([11]; 0.1581 µM) was 0.886 and the relative viability ([11]; 0.5 µM) was 0.52. The relative viability ([11]; 1.581 µM) was 0.148 and the relative viability ([11]; 5 µM) was 0.194.
